{
  "source": "patent US10772890B2",
  "about": "“Use of myeloperoxidase (MPO) inhibitors or pharmaceutically acceptable salts thereof to treat multiple system atrophy (MSA) 938” (ASTRAZENECA AB, priority 2007, dated 2020)",
  "format_in_all_cases": "in vivo",
  "key": {"MSA mice (tg+3NP) [1]": {"tested_on": "MSA mice (tg+3NP)", "experiment": "Stride length test in MSA mouse model", "settings": "high dose 180 μmol/kg p.o. twice daily, FIG. 3", "procedure": "(§1) A total of 30 (PLP)-α-synuclein transgenic mice were used. Animals were housed at 12/12 hours dark/light cycle with free access to food and water in the animal facility of the Innsbruck Medical University. All experiments were performed in accordance with the Austrian law and after permission for animal experiments of the Federal Ministry for Education, Science, and Culture of Austria.\n(§2) Low dose group (n=10) MSA mice (tg+3NP) treated with 1-(2-Isopropoxyethyl)-2-thioxo-1,2,3,5-tetrahydro-pyrrolo[3,2-d]pyrimidin-4-one (Compound I; prepared by AstraZeneca), 2×6 μmol/kg p.o.\n(§3) High dose group (n=10) MSA mice (tg+3NP) treated with Compound I (prepared by AstraZeneca), 2×180 μmol/kg, p.o.\n(§4) 1-(2-Isopropoxyethyl)-2-thioxo-1,2,3,5-tetrahydro-pyrrolo[3,2-d]pyrimidin-4-one (Compound I treatment) was started one week prior to the first 3NP intoxication and stopped three weeks after the first 3NP intoxication (see 3NP intoxication protocol below). […]\nThe stride length of the forelimbs and hindlimbs of the mice was measured after a habituation to the test for 3 days before its performance according to Fernagut et al. (Fernagut P O. et al. Neuroscience. 2002; 114:1005-17) with slight modification. […] After three runs, the stride length of the hindlimbs on each side was measured, excluding the beginning (7 cm) and the end (7 cm) of the run. The mean stride length for each limb was determined."}, "MSA mice (tg+3NP) [2]": {"tested_on": "MSA mice (tg+3NP)", "experiment": "Motor clinical scale evaluation in MSA mouse model", "settings": "p.o. twice daily, compared to vehicle treated mice, FIG. 1", "from_the_text": "A novel mouse model of MSA has been developed by inducing oxidative stress in transgenic mice with oligodendroglial α-synuclein expression (described herein). This model reproduces the cardinal neuropathological features of the disease including striatonigral degeneration (SND), olivopontocerebellar atrophy (OPCA), astrogliosis and microgliosis combined with oligodendroglial insoluble α-synuclein inclusions. Mitochondrial inhibition by 3NP in the presence of glial cytoplasmic inclusions in transgenic mice induces a selective neuronal cell death pattern typical for MSA in these animals (Stefanova N. et al. Am. J. Pathol. 2005; 166:869-76).\nThus, in the present invention, MPO inhibitors have been use to suppress MPO activity in an MSA mouse model consisting of an oligodendroglial α-SYN overexpression in transgenic mice exposed to mitochondrial inhibition by 3-nitropropionic acid (3NP). The effects were followed by application of established immunohistological and behavioral methods to evaluate the participation of MPO in the pathogenesis of MSA and the possible neuroprotective effects of in an MSA model.\nA total of 30 (PLP)-α-synuclein transgenic mice were used. Animals were housed at 12/12 hours dark/light cycle with free access to food and water in the animal facility of the Innsbruck Medical University. […]"}, "MSA mice (tg+3NP) [3]": {"tested_on": "MSA mice (tg+3NP)", "experiment": "Neuropathology: immunohistochemistry and stereological neuron counts in MSA mouse model", "procedure": "as §1, §2, §3\n(§5) 1-(2-Isopropoxyethyl)-2-thioxo-1,2,3,5-tetrahydro-pyrrolo[3,2-d]pyrimidin-4-one (Compound I treatment) was started one week prior to the first 3NP intoxication and stopped three weeks after the first 3NP intoxication (see 3NP intoxication protocol below). Animals underwent behavioral tests during week 3-4 after the beginning of the experiment. On day 28 animals were perfused under deep thiopental anesthesia and the brains were collected for histopathological analysis of neuronal loss and gliosis.\nMice were intoxicated chronically with 3NP with slowly increasing doses of toxin according to a previously used scheme (i.e. 4×10 mg/kg, 4×20 mg/kg, 4×40 mg/kg, 4×50 mg/kg intraperitoneal injections every 12th hour for a period of 8 days) to model MSA (Stefanova N. et al. Am. J. Pathol. 2005; 166:869-76)\nThe drug and vehicle (0.1 mol/L meglumine with 20% w/v hydroxypropyl-β-cyclodextrin, pH 10.8) were stored at 4° C. […]\n(§6) Stereology was applied using a computer-assisted image analysis system (Nikon E-800 microscope, CCD video camera, Optronics MicroFire, Goleta, USA; Stereo Investigator Software, MicroBrightField Europe e.K., Magdeburg, Germany). […] Purkinje cells were counted in a region outlined to include only the Purkinje cell layer as previously reported (German D C. et al. Neuroscience. 2001; 105:999-1005). All data were expressed as mean value±SEM. […]"}, "MSA mice (tg+3NP) [4]": {"tested_on": "MSA mice (tg+3NP)", "experiment": "Microglial activation (optical density) in substantia nigra and striatum of MSA mice", "settings": "high dose 180 μmol/kg p.o. twice daily, FIG. 6", "procedure": "as §1, §2, §3, §4, §6"}, "MSA mice (tg+3NP) [5]": {"tested_on": "MSA mice (tg+3NP)", "experiment": "Open field activity (Flex Field Activity System) in MSA mouse model", "settings": "high dose 180 μmol/kg p.o. twice daily, FIG. 2", "procedure": "as §1, §2, §3\nas §5, with “gliosis. […]” for “gliosis.”"}},
  "data": [
    {"molecule": "CC(C)OCCn1c(=S)[nH]c(=O)c2[nH]ccc21", "note": "[Compound I, 1-(2-Isopropoxyethyl)-2-thioxo-1,2,3,5-tetrahydro-pyrrolo[3,2-d]pyrimidin-4-one]", "values": [
      {"measurement": "stride length test performance (left and right hindlimbs)", "setting": "MSA mice (tg+3NP) [1]", "result": "significant improvement"},
      {"measurement": "mean daily motor score", "setting": "MSA mice (tg+3NP) [2]", "result": "significant improvement"},
      {"measurement": "striatonigral degeneration (TH immunopositive cells in substantia nigra, dopaminergic terminals in striatum, striatal DARPP-32 immunoreactive neurons)", "setting": "MSA mice (tg+3NP) [3]; high dose 180 μmol/kg p.o. twice daily, FIG. 4", "result": "neuroprotective"},
      {"measurement": "olivopontocerebellar atrophy (inferior olivary complex, pontine nuclei, Purkinje cells in the cerebellum)", "setting": "MSA mice (tg+3NP) [3]; high dose 180 μmol/kg p.o. twice daily, FIG. 5", "result": "neuroprotective"},
      {"measurement": "neuroprotection (neurons preserved in substantia nigra pars compacta, striatum, cerebellar cortex, pontine nuclei, inferior olivary complex)", "setting": "MSA mice (tg+3NP) [3]; summary of findings, dose not stated", "result": "significant neuroprotection"},
      {"measurement": "microglial activation in substantia nigra and striatum", "setting": "MSA mice (tg+3NP) [4]", "result": "suppression of microglial activation"},
      {"measurement": "flex field performance (rearing and open field activity)", "setting": "MSA mice (tg+3NP) [5]", "result": "significant improvement"}
    ]}
  ]
}
